Laboratory results reported in article PMC7617978, “Anti-trypanosomal quinazolines targeting lysyl-tRNA synthetases show partial efficacy in a mouse model of acute Chagas disease” (Science translational medicine, 2025).
Like-named read-outs stand apart in the source and are kept apart here.

How the values were obtained:
[1] = system: Lysyl-tRNA synthetase 1 (KRS1); experiment: Isothermal proteome profiling (iTPP), TcKRS1; format: binding, T. cruzi; settings: KRS1 (C4B63_45g239); lysate, compound at 10× EC50, 48°C
Description: (§1) T. cruzi epimastigote lysates were generated as previously described ([29]). Isothermal TPP assays were performed as previously described ([25]). […] Data processing and analyses were performed as previously described ([25]), except proteins were identified via searches against the T. cruzi Dm28C proteome (tritrypdb.org, version 49).

[2] = system: T. cruzi epimastigote lysates; experiment: Isothermal proteome profiling (iTPP), other hit proteins; format: binding; settings: 10× EC50, 48°C
Description: as §1

hERG channel = target: T1, hERG channel (Homo sapiens, UniProt Q12809); experiment: In vitro hERG fluorescence polarization assay; format: binding; settings: read-out: hERG inhibition (IC50 value)
T1 construct: purchased Invitrogen
T1 sequence (Q12809 whole entry): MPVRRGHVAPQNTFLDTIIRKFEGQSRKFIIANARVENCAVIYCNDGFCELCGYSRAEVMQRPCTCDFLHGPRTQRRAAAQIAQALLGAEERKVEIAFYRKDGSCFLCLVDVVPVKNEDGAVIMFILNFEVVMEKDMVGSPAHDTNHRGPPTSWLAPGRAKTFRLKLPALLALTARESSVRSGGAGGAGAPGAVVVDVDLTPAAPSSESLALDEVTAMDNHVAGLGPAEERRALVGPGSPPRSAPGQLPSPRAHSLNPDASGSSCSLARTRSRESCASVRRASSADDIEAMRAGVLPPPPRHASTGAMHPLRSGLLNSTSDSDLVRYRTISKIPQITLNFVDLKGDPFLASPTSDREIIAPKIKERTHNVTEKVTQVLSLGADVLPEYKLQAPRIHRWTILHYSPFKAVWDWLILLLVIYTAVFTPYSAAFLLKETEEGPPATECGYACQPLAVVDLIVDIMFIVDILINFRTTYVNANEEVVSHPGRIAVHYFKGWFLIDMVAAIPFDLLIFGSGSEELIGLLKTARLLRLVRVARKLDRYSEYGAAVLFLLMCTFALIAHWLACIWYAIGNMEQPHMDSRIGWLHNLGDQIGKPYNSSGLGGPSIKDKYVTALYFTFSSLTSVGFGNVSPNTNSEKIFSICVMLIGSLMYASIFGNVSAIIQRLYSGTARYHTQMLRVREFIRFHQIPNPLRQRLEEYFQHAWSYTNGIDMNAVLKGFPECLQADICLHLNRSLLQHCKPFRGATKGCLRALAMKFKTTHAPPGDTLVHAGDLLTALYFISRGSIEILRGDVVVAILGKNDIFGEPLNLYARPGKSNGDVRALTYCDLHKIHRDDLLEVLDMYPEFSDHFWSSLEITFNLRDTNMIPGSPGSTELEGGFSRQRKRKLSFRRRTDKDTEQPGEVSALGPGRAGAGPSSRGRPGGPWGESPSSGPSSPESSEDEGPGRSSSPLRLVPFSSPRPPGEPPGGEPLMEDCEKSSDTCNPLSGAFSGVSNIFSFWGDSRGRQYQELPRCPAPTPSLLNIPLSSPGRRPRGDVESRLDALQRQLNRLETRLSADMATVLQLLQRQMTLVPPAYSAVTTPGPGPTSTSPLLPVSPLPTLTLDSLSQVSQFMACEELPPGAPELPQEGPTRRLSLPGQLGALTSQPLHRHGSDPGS
Description: In vitro hERG fluorescence polarization assay
Compounds were assessed for potential hERG channel inhibition using the Predictor® hERG Fluorescence Polarization Assay Kit (Invitrogen), as per manufacturer’s instructions.
Compounds were screened with test compounds at concentrations ranging from 0.0003 – 30
µM. Fluorescence polarization was measured using EnVision plate reader fitted with polarized filters (excitation: 531 nm; emission: 595 nm). IC50 values were determined using GraphPad

human KRS = target: T2, human KRS (Homo sapiens, UniProt Q15046); experiment: Human KRS inhibition assay using BIOMOL Green; format: biochemical; settings: for IC50: recombinant HsKRS, 3.5 μM ATP, 6 μM L-lysine, read-out: IC50 values (95% CI)
T2 construct: made in house
T2 sequence (Q15046 whole entry): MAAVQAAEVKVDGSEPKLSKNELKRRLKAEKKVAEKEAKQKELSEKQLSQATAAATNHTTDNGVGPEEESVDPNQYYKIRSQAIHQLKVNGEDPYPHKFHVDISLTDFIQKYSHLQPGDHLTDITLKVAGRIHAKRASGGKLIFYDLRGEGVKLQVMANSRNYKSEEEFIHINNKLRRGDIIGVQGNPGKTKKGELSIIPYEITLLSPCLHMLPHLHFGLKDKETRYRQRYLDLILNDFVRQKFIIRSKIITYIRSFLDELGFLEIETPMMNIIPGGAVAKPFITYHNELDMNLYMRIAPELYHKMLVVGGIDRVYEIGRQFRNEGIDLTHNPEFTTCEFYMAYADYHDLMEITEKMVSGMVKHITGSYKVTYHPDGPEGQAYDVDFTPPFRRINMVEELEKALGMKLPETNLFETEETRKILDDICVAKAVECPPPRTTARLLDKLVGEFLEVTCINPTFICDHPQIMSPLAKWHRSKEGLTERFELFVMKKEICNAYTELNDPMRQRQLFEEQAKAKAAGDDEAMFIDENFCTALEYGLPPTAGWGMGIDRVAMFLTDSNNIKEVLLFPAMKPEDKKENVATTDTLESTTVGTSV
Description: Cloning, expression and purification of recombinant HsKRS has been described previously ([21]).
The enzymatic activity of recombinant KRS was determined by monitoring the concentration of pyrophosphate released during the first step of the reaction catalyzed by recombinant TcKRS1. The pyrophosphate formed was converted to two inorganic phosphate molecules using a pyrophosphatase enzyme and concentrations of the resulting phosphate were measured using the BIOMOL Green reagent (Enzo Life Sciences). All screening assays were performed in 384-well, clear, flat-bottom plates (Greiner) at room temperature (~23°C) in 50 μl reaction volumes.
To generate IC50 data for test compounds, 10-point inhibitor dose-response curves were prepared in 384-well assay plates using an ECHO 550 acoustic dispenser (Labcyte).
All assays were performed by adding 25 μl of assay buffer with enzyme to compound-containing assay wells before the reaction was initiated with the addition of a 25 μl substrate mixture containing L-lysine, ATP and pyrophosphatase. […] Following a 6–h reaction at room temperature, the assays were stopped by the addition of 50 μl BIOMOL Green. The BIOMOL Green signal was allowed to develop for 30 min before the absorbance of each well was read at 650 nm using a PheraStar plate reader (BMG). All liquid-dispensing steps were carried out using a Thermo Scientific WellMate dispenser (Matrix).
All IC50 curve fitting was undertaken using ActivityBase XE (version 7.7.1) from IDBS. Percentage inhibition curves for TcKRS1 and human KRS, were fitted to a four-parameter logistic dose-response equation (XLfit model 203), with pre-fitting for all four parameters, using the equation below, where A is no inhibition, B is maximum inhibition, C is the Log10 (IC50), D is the Hill slope and x is the inhibitor concentration. […]

HepG2 = experiment: Drug sensitivity assay, HepG2 cells; format: cell-based
Description: Human HepG2 cells (ECACC 85011430) were cultivated at 37°C in minimal essential medium (MEM) supplemented with GlutaMax (1×, Thermo Fisher), 10% (v/v) fetal bovine serum (FBS), MEM non-essential amino acids (1×, Sigma) and in the presence of 5% CO2, as previously described ([29]). Cells were passaged twice weekly through detachment of adherent cells with trypsin/EDTA (Sigma) and subsequent dilution into fresh medium.
The relative potency of test compounds against T. cruzi epimastigotes ([29]), T. b. brucei bloodstream forms ([41]), T. b. rhodesiense bloodstream forms ([42]), L. donovani promastigotes ([43]) and Hep G2 cells ([29]) were established as previously described. The potency of test compounds on intracellular T. cruzi (Sylvio, X10/7A1) were determined in 96-well plates as previously described ([29]).

CYP2D6 = CYP2D6 (Homo sapiens, UniProt P10635); experiment: In vitro CYP inhibition, 2D6; format: in vitro ADME
CYP2D6, sequence (P10635 whole entry, canonical isoform): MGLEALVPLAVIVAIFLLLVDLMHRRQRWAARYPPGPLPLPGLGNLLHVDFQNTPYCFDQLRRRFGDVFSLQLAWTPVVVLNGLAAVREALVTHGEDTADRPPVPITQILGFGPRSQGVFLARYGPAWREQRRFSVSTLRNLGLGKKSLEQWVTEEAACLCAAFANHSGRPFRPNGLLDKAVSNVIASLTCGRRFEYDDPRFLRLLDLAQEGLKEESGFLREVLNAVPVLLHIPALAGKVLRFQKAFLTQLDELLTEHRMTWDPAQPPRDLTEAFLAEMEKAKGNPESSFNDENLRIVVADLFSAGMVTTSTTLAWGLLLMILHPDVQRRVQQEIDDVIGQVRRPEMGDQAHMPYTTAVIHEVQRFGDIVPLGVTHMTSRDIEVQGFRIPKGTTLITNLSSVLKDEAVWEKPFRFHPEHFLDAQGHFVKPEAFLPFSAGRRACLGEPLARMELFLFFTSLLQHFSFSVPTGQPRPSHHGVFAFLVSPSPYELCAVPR
Description: Compounds were screened for CYP inhibition activity using the protocol established by TCG Lifesciences (India). The activity of five CYP450 isoforms: 1A2; 2C9; 2D6, 3A4; and 2C19 was monitored in the presence of test or control (miconazole) compounds at 10 µM. Reactions were terminated after 10 min (30 min for CYP2C19) by the addition of acetonitrile, centrifuged and analysed via LC-MS/MS. […]

[3] = system: T. cruzi (Sylvio X10/7A1 strain) epimastigote; experiment: microbe, parasite or virus in culture; format: cell-based; settings: for Fold-shift (relative to WT): epimastigote; for EC50: Trypanosoma cruzi
Plasma protein binding = format: in vitro ADME; settings: read-out: bound to plasma proteins (converted)
Description: The propensity of DMU759 to bind to plasma proteins was determined as previously described ([21]).

T. b. brucei BSF = experiment: Drug sensitivity assay, T. b. brucei bloodstream forms; format: cell-based; settings: for EC50: Trypanosoma brucei
[4] = DMU759 exposure in mice after oral dosing; format: in vivo; settings: 50 mg/kg oral
Description: DMU759 (50 mg/kg) was orally administered to BALB/c mice. The dose solution was prepared on the day of dosing, and the vehicle was 0.5% (w/v) hydroxypropyl methylcellulose and 0.4% […]. Blood samples (10 μl) were collected from the tail vein of each animal at defined intervals then placed into 1.2 mL cryovials containing deionized water (90 μl) and stored at −80°C until analysis. Blood levels of DMU759 in mouse blood were determined by UPLC-MS/MS, as previously described ([58]).

[5] = 19S proteasome regulatory subunit (C4B63_14g170)
[6] = Conserved hypothetical protein (C4B63_42g251)
[7] = Mitochondrial processing peptidase, beta subunit (C4B63_3g1101)
[8] = Ribosomal protein S26 (C4B63_6g2300)
[9] = cysteine peptidase, Clan CA, family C2 (C4B63_22g162)
[10] = read-out: EC50 value, KRS1 OE (overexpressing), epimastigote
[11] = read-out: EC50 value, KRS1 S319L, epimastigote
[12] = read-out: EC50 value, WT, epimastigote
[13] = KRS1 OE, BSF, read-out: EC50 value
[14] = read-out: EC50 value, KRS1 S319L (as printed in Table S1), BSF

Cc1nc(N)c2c(F)c(F)c(SC3CCCCC3)c(F)c2n1 [DMU759, 7-(Cyclohexylthio)-5,6,8-trifluoro-2-methylquinazolin-4-amine]
Abundance Log2 fold change Rep 1 [1]: 2.26
Abundance Log2 fold change Rep 2 [1]: 1.94
Abundance Log2 fold change Rep 1 [2, 5]: -2.64
Abundance Log2 fold change Rep 2 [2, 5]: -3.79
Abundance Log2 fold change Rep 1 [2, 6]: -2.25
Abundance Log2 fold change Rep 2 [2, 6]: -1.75
Abundance Log2 fold change Rep 1 [2, 7]: -2.04
Abundance Log2 fold change Rep 2 [2, 7]: -2.35
Abundance Log2 fold change Rep 1 ([2]; P-type H+-ATPase (C4B63_116g3)): -2.27
Abundance Log2 fold change Rep 2 ([2]; P-type H+-ATPase (C4B63_116g3)): -1.74
Abundance Log2 fold change Rep 1 [2, 8]: -1.59
Abundance Log2 fold change Rep 2 [2, 8]: -1.80
Abundance Log2 fold change Rep 1 [2, 9]: -1.58
Abundance Log2 fold change Rep 2 [2, 9]: -2.80
IC50 (hERG channel): 12.2 ± 1.1 µM
extent of inhibition of the human KRS1 enzyme (human KRS): partial inhibition
IC50 (human KRS): 7.17 µM
EC50 (HepG2; Homo sapiens, HepG2; read-out: EC50 value): 16.9 ± 5.38 µM
inhibition at 10 min, 10 µM (CYP2D6): 14.5 ± 2.5%
Fold-shift (relative to WT) ([3]; KRS1 OE): 10 fold
Fold-shift (relative to WT) ([3]; KRS1 S319L): 41 fold
EC50 [3, 10]: 0.134 ± 0.003 µM
EC50 [3, 11]: 0.565 ± 0.041 µM
EC50 [3, 12]: 0.014 ± 0.0003 µM
resistance conferred by mutation of a single amino acid in the KRS1 active site ([3]; in vitro, parasite not stated (discussion)): > 20 fold
fraction unbound (Plasma protein binding): 0.11
Fold-shift (relative to WT) (T. b. brucei BSF; KRS1 OE, BSF): 9 fold
Fold-shift (relative to WT) (T. b. brucei BSF; KRS1 serine-to-leucine mutant (S323L; printed S319L in Table S1), BSF): 58 fold
EC50 (T. b. brucei BSF; [13]): 1.06 ± 0.033 µM
EC50 (T. b. brucei BSF; WT, BSF, read-out: EC50 value): 0.112 ± 0.0008 µM
EC50 (T. b. brucei BSF; [14]): 6.48 ± 0.36 µM
free blood concentration versus EC99 ([4]; corrected for plasma protein binding, in words): did not exceed the established EC99
time of peak blood concentration ([4]; post dosing): one
time total blood concentrations exceeded EC99 ([4]; post dosing): up to 4 hours

Cc1nc(N)c2c(F)c(F)c(NC3CCCC3)c(F)c2n1 [DMU371, N7-Cyclopentyl-5,6,8-trifluoro-2-methylquinazoline-4,7-diamine]
IC50 (hERG channel): 7.6 ± 1.3 µM
extent of inhibition of the human KRS1 enzyme (human KRS): partial inhibition
IC50 (human KRS): 9.8 µM
EC50 (HepG2; Homo sapiens, HepG2, read-out: EC50 value): 5.82 ± 0.5 µM
EC50 [3, 10]: 0.624 ± 0.014 µM
EC50 [3, 11]: 0.326 ± 0.026 µM
EC50 [3, 12]: 0.063 ± 0.0024 µM
EC50 (T. b. brucei BSF; [13]): 4.25 ± 0.17 µM
EC50 (T. b. brucei BSF; WT, BSF, read-out: EC50 value): 0.607 ± 0.009 µM
EC50 (T. b. brucei BSF; [14]): 1.87 ± 0.071 µM
